Test results published in publication PMC7915353, “Magnolol and Honokiol: Two Natural Compounds with Similar Chemical Structure but Different Physicochemical and Stability Properties” (Pharmaceutics, 2021).
Values after ≈ are worked out from the molar mass of the structure shown. Where two headings read alike, the source gives them in different places.

Experiments:
[1] = Octanol-water distribution coefficients; assay type: physicochemical
Description: Octanol–water distribution coefficients (Do/w) of magnolol and honokiol were determined by dissolving each compound in n-octanol, previously saturated with buffer (pH 1.2, 4.5, 6.8, and 7.4) or water, using glass vials. Buffers and water saturated with n-octanol were added to the corresponding vials, which were stirred for approximately 12 h at room temperature. Thereafter, the organic and the aqueous phases were separated by centrifuging the contents of the vials (2 min at 8000× g), and the concentration of each compound in both phases was determined by HPLC. The distribution coefficient was obtained as the quotient of the concentrations in the n-octanol and aqueous phases.

[2] = Solubility at different pH values at 37 °C, shake-flask; assay type: physicochemical; details: for solubility at 24 h: 37 °C, thermodynamic from solid
Description: (§1) The aqueous solubility was evaluated using the shake-flask method. Briefly, approximately 40 mg of magnolol or honokiol were added to a volume of 10 mL of distilled water. The mixture was kept in constant agitation for a total period of 24–48 h. Samples were taken at 24 and 48 h, centrifuged for 2 min at 10× g, and the concentration of the dissolved compound was determined in the supernatant using the analytical method described above. The 48-h sample was used to confirm that a dissolution equilibrium had been reached after 24 h of agitation.
Solubility at different pH values (1.2, 4.5, 6.8, 7.4, 8, 9, and 10) was determined at 37 °C after 24 h of agitation. The composition of the solutions is described in USP 35 [33] and the European Pharmacopeia 7.0 [34]. Briefly, the pH 1.2 solution was prepared with diluted hydrochloric acid, the solutions with pH values from 4.5 to 7.4 were phosphate buffers, and the solutions with pH 9 and 10 were borate buffers. Additionally, two pH 8 solutions were prepared using phosphate and borate buffers.

[3] = pKa, graphical estimation from solubility-pH data; assay type: physicochemical
From the text: Among the components of Magnolia officinalis extracts with pharmacological activity, the most relevant are magnolol and honokiol. These natural compounds have attracted great interest in recent years for their potential therapeutic applications. However, a limitation in the use of magnolol and honokiol is their poor water solubility, which can greatly restrict gastrointestinal absorption and bioavailability. The water solubilities of magnolol and honokiol at room temperature obtained in this work were 12.5 and 50.6 µg/mL, respectively. However, the solubility of both compounds can be affected by the medium pH, since their molecules contain phenolic groups that can be ionized at alkaline pH values. […] Using the obtained solubility–pH data, the pKa of magnolol can be estimated from the intersection of the straight lines corresponding to pH 1.2–6.8 and to pH 7.4–10 in Figure 3 [36]. […] This discrepancy is probably due to the reduced number of values for the second straight line (pH 9 and 10). […] The different solubility values obtained in both studies could be related to the different agitation time, which was shorter in the study of Lee et al. (2 h vs. 24 h). […] In the case of honokiol, no data about its solubility at different pH values have been found in the available literature. […] Again, the discrepancy in these values could be related to the agitation time (4 h vs. 24 h).

[4] = Stability at room temperature and 37 °C, 30 days, different pH; assay type: physicochemical; details: one month
Description: The stability was also evaluated at room temperature and 37 °C (pH 1.2, 4.5, 6.8, 7.4, 8, 9, and 10) after an incubation period of 30 days.

[5] = Solubility in water, shake-flask method; assay type: physicochemical
Description: as §1

[6] = computer program; cited from earlier work
[7] = Forced-degradation at 60 °C, different pH values; assay type: physicochemical; details: 24 h, 0.1 M HCl, 0.1 M NaOH, buffers pH 7.4-10
Description: The stability of both natural products was evaluated in forced conditions at 60 °C using different pH values. Magnolol and honokiol solutions were prepared in 0.1 M HCl, 0.1 M NaOH, and buffers (pH 7.4, 8, 9, and 10). These solutions were kept at 60 °C for 24 h and the concentration of remaining magnolol and honokiol was determined.

[8] = cited from earlier work
[9] = cited from earlier work; remark: listed apart in the source
[10] = Stability under oxidizing conditions (3% H2O2); assay type: physicochemical; details: 3% hydrogen peroxide, 24 h, room temperature, 37 °C and 60 °C
Description: Additionally, stability was examined under oxidizing conditions using 3% H2O2. These samples were kept at room temperature, 37 °C, and 60 °C, for 24 h. The concentration of samples was expressed as a percentage of the initial concentration.

C=CCc1ccc(O)c(-c2ccc(O)c(CC=C)c2)c1 [Honokiol, 3,5′-diallyl-4,2′-dihydroxybiphenyl]
logP ([1]; Log Do/w): 4.27 ± 0.06
logP ([1]; log Po/w): ~4.5
logD ([1]; pH 1.2): 4.48 ± 0.05
logD ([1]; pH 4.5): 4.5 ± 0.08
logD ([1]; pH 6.8): 4.48 ± 0.04
logD ([1]; pH 7.4): 4.28 ± 0.05
solubility at 24 h ([2]; pH 10, aqueous buffer): ~220 µg/mL (≈ 826 µM)
solubility at 24 h [2]: ~75 µg/mL (≈ 282 µM)
pKa [3]: 8.5
Degradation ([4]; pH 4.5 and 6.8, 37 °C): a decrease in the initial concentration was detected
Concentration, percentage of the initial concentration ([4]; pH 7.4, 37 °C): 29%
Concentration, percentage of the initial concentration ([4]; pH 7.4, room temperature): 84%
Degradation ([4]; pH values lower than 7.4, room temperature): no degradation
solubility at 24 h [5]: 50.6 ± 1.2 µg/mL (≈ 190 µM)
log Po/w, theoretical estimation [6]: 4.20

C=CCc1ccc(O)c(-c2cc(CC=C)ccc2O)c1 [Magnolol, 5, 5′-diallyl-2, 2′-dihydroxybiphenyl]
logP ([1]; aqueous phase H2O, n-octanol, room temperature, mean ± SD, n = 4, read-out: Log Do/w): 4.07 ± 0.09
logD ([1]; aqueous phase pH 1.2, n-octanol, room temperature, mean ± SD, n = 4, read-out: Log Do/w): 4.5 ± 0.1
logD ([1]; aqueous phase pH 4.5, n-octanol, room temperature, mean ± SD, n = 4, read-out: Log Do/w): 4.55 ± 0.11
logD ([1]; aqueous phase pH 6.8, n-octanol, room temperature, mean ± SD, n = 4, read-out: Log Do/w): 4.48 ± 0.06
logD ([1]; aqueous phase pH 7.4, n-octanol, room temperature, mean ± SD, n = 4, read-out: Log Do/w): 4.3 ± 0.08
logP ([1]; from log Do/w values at the acidic pHs, read-out: log Po/w): ~4.5
Stability at different pH values [7]: relatively stable
solubility at 24 h ([2]; pH 1.2, simulated gastric fluid, pH 1.2, 37 °C, 24 h agitation, read-out: Solubility): 14.8 µg/mL (≈ 55.4 µM)
solubility at 24 h ([2]; pH 7.4, aqueous buffer, pH 7.4, 37 °C, 24 h agitation, read-out: Solubility): 30.5 µg/mL (≈ 115 µM)
solubility at 24 h ([2]; pH 8, aqueous buffer, pH 8 borate buffer, read-out: Solubility): 138 µg/mL (≈ 518 µM)
solubility at 24 h ([2]; pH 8, aqueous buffer, pH 8 phosphate buffer, read-out: Solubility): 76 µg/mL (≈ 285 µM)
solubility at 24 h ([2]; pH 10, aqueous buffer, pH 10, 37 °C, read-out: Solubility): ~2700 µg/mL (≈ 10100 µM)
solubility at 24 h ([2]; pH values lower than 7.4, 37 °C, 24 h agitation, read-out: Solubility): ~16 µg/mL (≈ 60.1 µM)
Solubility at pH 7.4 in comparison to pH 1.2, fold higher ([2]; present study): ~2 fold
Solubility ([8]; pH 1.2, 2 h of agitation): 3.25 µg/mL (≈ 12.2 µM)
Solubility ([8]; pH 3.5, 2 h of agitation): 4.95 µg/mL (≈ 18.6 µM)
Solubility ([8]; pH 7.4, 2 h of agitation): 0.04 µg/mL (≈ 0.15 µM)
Solubility at pH 7.4 in comparison to pH 1.2, fold lower ([8]; study by Lee et al.): approximately 99 fold
pKa ([3]; intersection of straight lines of solubility-pH profile (Figure 3), read-out: pKa, graphical estimation): 7.2
pKa (first value) [9]: 7.10
pKa (second value) [9]: 10.58
solubility at 24 h ([5]; water, room temperature, preliminary solubility test, read-out: Solubility in water): 12.5 ± 0.6 µg/mL (≈ 46.9 µM)
log Po/w, theoretical estimation [6]: 3.94
Stability under oxidizing conditions [10]: degradation increased with the temperature
